Key:
Assay in all cases: cells
Assay type in all cases: functional, cell-based, Homo sapiens
COLO-829 = settings: Homo sapiens, COLO-829
Description: SANGER: Inhibition of human COLO-829 cell growth in a cell viability assay.

CP66-MEL = settings: Homo sapiens, CP66-MEL;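 also: growth inhibition of CP66-MEL cells determined in a cell viability assay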
Description: SANGER: Inhibition of human CP66-MEL cell growth in a cell viability assay.

CTV-1 = settings: Homo sapiens, CTV-1;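 also: growth inhibition of the cell line, read out with a cell viability assay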
Description: SANGER: Inhibition of human CTV-1 cell growth in a cell viability assay.

D283 Med = settings: Homo sapiens, D283 Med
Description: SANGER: Inhibition of human D-283MED cell growth in a cell viability assay.

DJM-1 = settings: Homo sapiens, DJM-1;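 also: growth inhibition of human DJM-1 cells, read out by a cell viability assay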
Description: SANGER: Inhibition of human DJM-1 cell growth in a cell viability assay.

EKVX = settings: Homo sapiens, EKVX;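 also: growth inhibition of human EKVX cells, read out with a cell viability assay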
Description: SANGER: Inhibition of human EKVX cell growth in a cell viability assay.

EW-1 = settings: Homo sapiens, EW-1
Description: SANGER: Inhibition of human EW-1 cell growth in a cell viability assay.

EW-18 = settings: Homo sapiens, EW-18;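 also: growth inhibition of EW-18 cells, read out by a cell viability assay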
Description: SANGER: Inhibition of human EW-18 cell growth in a cell viability assay.

GB-1 = settings: Homo sapiens, GB-1;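 also: growth of GB-1 cells judged by a viability assay, IC50 marks the concentration inhibiting growth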
Description: SANGER: Inhibition of human GB-1 cell growth in a cell viability assay.

GCIY = settings: Homo sapiens, GCIY;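 also: growth inhibition of the human GCIY cell line, read out by a cell viability assay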
Description: SANGER: Inhibition of human GCIY cell growth in a cell viability assay.

GI-1 = settings: Homo sapiens, GI-1;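 also: growth inhibition of human GI-1 cells, measured with a cell viability readout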
Description: SANGER: Inhibition of human GI-1 cell growth in a cell viability assay.

GR-ST = settings: Homo sapiens, GR-ST
Description: SANGER: Inhibition of human GR-ST cell growth in a cell viability assay.

HCE-T = settings: Homo sapiens, HCE-T;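 also: cell viability assay read-out, reporting inhibition of HCE-T cell growth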
Description: SANGER: Inhibition of human HCE-T cell growth in a cell viability assay.

HT-144 = settings: Homo sapiens, HT-144
Description: SANGER: Inhibition of human HT-144 cell growth in a cell viability assay.

JVM-2 = settings: Homo sapiens, JVM-2;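 also: growth inhibition of JVM-2 cells determined by a cell viability assay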
Description: SANGER: Inhibition of human JVM-2 cell growth in a cell viability assay.

JVM-3 = settings: Homo sapiens, JVM-3;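 also: growth inhibition of human JVM-3 cells, read out with a cell viability assay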
Description: SANGER: Inhibition of human JVM-3 cell growth in a cell viability assay.

KALS-1 = settings: Homo sapiens, KALS-1;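 also: growth inhibition of KALS-1 cells, determined with a cell viability assay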
Description: SANGER: Inhibition of human KALS-1 cell growth in a cell viability assay.

KARPAS-299 = settings: Homo sapiens, KARPAS-299
Description: SANGER: Inhibition of human KARPAS-299 cell growth in a cell viability assay.

KGN = settings: Homo sapiens, KGN;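 also: growth inhibition of KGN cells, read out with a cell viability assay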
Description: SANGER: Inhibition of human KGN cell growth in a cell viability assay.

KNS-42 = settings: Homo sapiens, KNS-42;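 also: growth inhibition of KNS-42 cells, read out with a cell viability assay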
Description: SANGER: Inhibition of human KNS-42 cell growth in a cell viability assay.

KP-N-YS = settings: Homo sapiens, KP-N-YS;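 also: cell viability assay measuring inhibition of cell line growth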
Description: SANGER: Inhibition of human KP-N-YS cell growth in a cell viability assay.

LB2241-RCC = settings: Homo sapiens, LB2241-RCC;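 also: cell viability assay measuring how strongly the cultured human renal carcinoma line is prevented from growing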
Description: SANGER: Inhibition of human LB2241-RCC cell growth in a cell viability assay.

LS-1034 = settings: Homo sapiens, LS-1034
Description: SANGER: Inhibition of human LS-1034 cell growth in a cell viability assay.

LS-513 = settings: Homo sapiens, LS-513
Description: SANGER: Inhibition of human LS-513 cell growth in a cell viability assay.

MHH-NB-11 = settings: Homo sapiens, MHH-NB-11;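 also: growth inhibition of human MHH-NB-11 cells, read out by a cell viability assay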
Description: SANGER: Inhibition of human MHH-NB-11 cell growth in a cell viability assay.

MHH-PREB-1 = settings: Homo sapiens, MHH-PREB-1;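 also: cell viability assay measuring inhibition of proliferation of human MHH-PREB-1 cells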
Description: SANGER: Inhibition of human MHH-PREB-1 cell growth in a cell viability assay.

MMAC-SF = settings: Homo sapiens, MMAC-SF;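 also: growth inhibition of human MMAC-SF cells, read out with a cell viability assay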
Description: SANGER: Inhibition of human MMAC-SF cell growth in a cell viability assay.

MOLT-4 = settings: Homo sapiens, MOLT-4;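 also: growth inhibition of MOLT-4 cells, determined with a cell viability readout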
Description: SANGER: Inhibition of human MOLT-4 cell growth in a cell viability assay.

MSTO-211H = settings: Homo sapiens, MSTO-211H
Description: SANGER: Inhibition of human MSTO-211H cell growth in a cell viability assay.

Mo = settings: Homo sapiens, Mo
Description: SANGER: Inhibition of human Mo-T cell growth in a cell viability assay.

NB5 = settings: Homo sapiens, NB5;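 also: growth inhibition of NB5 cells, read out as cell viability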
Description: SANGER: Inhibition of human NB5 cell growth in a cell viability assay.

NB69 = settings: Homo sapiens, NB69;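 also: growth inhibition of NB69 cells, determined by a cell viability assay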
Description: SANGER: Inhibition of human NB69 cell growth in a cell viability assay.

NCI-H1304 = settings: Homo sapiens, NCI-H1304;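 also: growth inhibition of the cancer cell line, measured in a cell viability assay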
Description: SANGER: Inhibition of human NCI-H1304 cell growth in a cell viability assay.

NCI-H23 = settings: Homo sapiens, NCI-H23;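 also: cell viability assay measuring growth inhibition of NCI-H23 cells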
Description: SANGER: Inhibition of human NCI-H23 cell growth in a cell viability assay.

NCI-H510A = settings: Homo sapiens, NCI-H510A;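 also: growth inhibition of NCI-H510A cells, read out with a cell viability assay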
Description: SANGER: Inhibition of human NCI-H510A cell growth in a cell viability assay.

NCI-H747 = settings: Homo sapiens, NCI-H747;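 also: growth inhibition of human NCI-H747 cells, read out by a cell viability assay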
Description: SANGER: Inhibition of human NCI-H747 cell growth in a cell viability assay.

NTERA-2-cl-D1 = settings: Homo sapiens, NTERA-2-cl-D1;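 also: inhibition of cell growth, measured with a cell viability assay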
Description: SANGER: Inhibition of human NTERA-S-cl-D1 cell growth in a cell viability assay.

OCI-AML2 = settings: Homo sapiens, OCI-AML2;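 also: growth inhibition of OCI-AML2 cells, read out with a cell viability assay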
Description: SANGER: Inhibition of human OCI-AML2 cell growth in a cell viability assay.

OS-RC-2 = settings: Homo sapiens, OS-RC-2;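 also: growth inhibition of human OS-RC-2 cells, measured by a cell viability assay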
Description: SANGER: Inhibition of human OS-RC-2 cell growth in a cell viability assay.

P30-OHK = settings: Homo sapiens, P30-OHK;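 also: growth inhibition of the P30-OHK cell line, read out with a cell viability assay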
Description: SANGER: Inhibition of human P30-OHK cell growth in a cell viability assay.

Ramos-2G6-4C10 = settings: Homo sapiens, Ramos-2G6-4C10;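 also: growth inhibition of the cell line, measured by a cell viability read-out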
Description: SANGER: Inhibition of human Ramos-2G6-4C10 cell growth in a cell viability assay.

SCC-15 = settings: Homo sapiens, SCC-15;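 also: growth inhibition of SCC-15 cells, read out with a cell viability assay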
Description: SANGER: Inhibition of human SCC-15 cell growth in a cell viability assay.

SK-MEL-1 = settings: Homo sapiens, SK-MEL-1;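 also: growth inhibition of human SK-MEL-1 cells, read out by a cell viability assay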
Description: SANGER: Inhibition of human SK-MEL-1 cell growth in a cell viability assay.

A388 = settings: Homo sapiens, A388;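 also: growth inhibition of human A388 cells, read out with a cell viability assay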
Description: SANGER: Inhibition of human A388 cell growth in a cell viability assay.

A4-Fuk = settings: Homo sapiens, A4-Fuk;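 also: growth inhibition of A4-Fuk cells, read out by a cell viability assay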
Description: SANGER: Inhibition of human A4-Fuk cell growth in a cell viability assay.

TE-11 = settings: Homo sapiens, TE-11;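 also: growth inhibition of human TE-11 cells, read out by a cell viability assay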
Description: SANGER: Inhibition of human TE-11 cell growth in a cell viability assay.

VA-ES-BJ = settings: Homo sapiens, VA-ES-BJ;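 also: growth inhibition of the VA-ES-BJ cell line, read out by a cell viability assay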
Description: SANGER: Inhibition of human VA-ES-BJ cell growth in a cell viability assay.

no-10 = settings: Homo sapiens;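 also: growth inhibition of no-10 cells, read out with a cell viability assay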
Description: SANGER: Inhibition of human no-10 cell growth in a cell viability assay.

COLO-320-HSR = settings: Homo sapiens, COLO-320-HSR;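 also: growth inhibition of COLO-320-HSR cells, determined with a cell viability assay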
Description: SANGER: Inhibition of human COLO-320-HSR cell growth in a cell viability assay.

Cc1cn(-c2cc(NC(=O)c3ccc(C)c(Nc4nccc(-c5cccnc5)n4)c3)cc(C(F)(F)F)c2)cn1 [NILOTINIB]
IC50 (COLO-829): > 2000 nM
IC50 (CP66-MEL): > 2000 nM
IC50 (CTV-1): > 2000 nM
IC50 (D283 Med): > 2000 nM
IC50 (DJM-1): > 2000 nM
IC50 (EKVX): > 2000 nM
IC50 (EW-1): > 2000 nM
IC50 (EW-18): > 2000 nM
IC50 (GB-1): > 2000 nM
IC50 (GCIY): > 2000 nM
IC50 (GI-1): > 2000 nM
IC50 (GR-ST): > 2000 nM
IC50 (HCE-T): > 2000 nM
IC50 (HT-144): > 2000 nM
IC50 (JVM-2): > 2000 nM
IC50 (JVM-3): > 2000 nM
IC50 (KALS-1): > 2000 nM
IC50 (KARPAS-299): > 2000 nM
IC50 (KGN): > 2000 nM
IC50 (KNS-42): > 2000 nM
IC50 (KP-N-YS): > 2000 nM
IC50 (LB2241-RCC): 1020 nM
IC50 (LS-1034): > 2000 nM
IC50 (LS-513): > 2000 nM
IC50 (MHH-NB-11): > 2000 nM
IC50 (MHH-PREB-1): > 2000 nM
IC50 (MMAC-SF): > 2000 nM
IC50 (MOLT-4): > 2000 nM
IC50 (MSTO-211H): > 2000 nM
IC50 (Mo): > 2000 nM
IC50 (NB5): > 2000 nM
IC50 (NB69): > 2000 nM
IC50 (NCI-H1304): > 2000 nM
IC50 (NCI-H23): > 2000 nM
IC50 (NCI-H510A): > 2000 nM
IC50 (NCI-H747): > 2000 nM
IC50 (NTERA-2-cl-D1): > 2000 nM
IC50 (OCI-AML2): > 2000 nM
IC50 (OS-RC-2): > 2000 nM
IC50 (P30-OHK): > 2000 nM
IC50 (Ramos-2G6-4C10): > 2000 nM
IC50 (SCC-15): > 2000 nM
IC50 (SK-MEL-1): > 2000 nM
IC50 (A388): > 2000 nM
IC50 (A4-Fuk): > 2000 nM
IC50 (TE-11): > 2000 nM
IC50 (VA-ES-BJ): > 2000 nM
IC50 (no-10): > 2000 nM
IC50 (COLO-320-HSR): > 2000 nM

N#Cc1c(O)c2c(-c3ccc(-c4ccccc4O)cc3)csc2[nH]c1=O
IC50 (COLO-829): > 1020 nM
IC50 (CP66-MEL): > 1020 nM
IC50 (CTV-1): 73 nM
IC50 (D283 Med): 386 nM
IC50 (DJM-1): > 1020 nM
IC50 (EKVX): > 1020 nM
IC50 (EW-1): > 1020 nM
IC50 (EW-18): 451 nM
IC50 (GB-1): > 1020 nM
IC50 (GCIY): > 1020 nM
IC50 (GI-1): > 1020 nM
IC50 (GR-ST): 218 nM
IC50 (HCE-T): > 1020 nM
IC50 (HT-144): > 1020 nM
IC50 (JVM-2): > 1020 nM
IC50 (JVM-3): > 1020 nM
IC50 (KALS-1): > 1020 nM
IC50 (KARPAS-299): 948 nM
IC50 (KGN): > 1020 nM
IC50 (KNS-42): > 1020 nM
IC50 (KP-N-YS): > 1020 nM
IC50 (LB2241-RCC): > 1020 nM
IC50 (LS-1034): > 1020 nM
IC50 (LS-513): > 1020 nM
IC50 (MHH-NB-11): 323 nM
IC50 (MHH-PREB-1): 182 nM
IC50 (MMAC-SF): > 1020 nM
IC50 (MOLT-4): 114 nM
IC50 (MSTO-211H): > 1020 nM
IC50 (Mo): > 1020 nM
IC50 (NB5): > 1020 nM
IC50 (NB69): 686 nM
IC50 (NCI-H1304): 634 nM
IC50 (NCI-H23): > 1020 nM
IC50 (NCI-H510A): 692 nM
IC50 (NCI-H747): > 1020 nM
IC50 (NTERA-2-cl-D1): > 1020 nM
IC50 (OCI-AML2): 57.2 nM
IC50 (OS-RC-2): > 1020 nM
IC50 (P30-OHK): 993 nM
IC50 (Ramos-2G6-4C10): 172 nM
IC50 (SCC-15): > 1020 nM
IC50 (SK-MEL-1): > 1020 nM
IC50 (A388): > 1020 nM
IC50 (A4-Fuk): > 1020 nM
IC50 (TE-11): > 1020 nM
IC50 (VA-ES-BJ): > 1020 nM
IC50 (no-10): > 1020 nM
IC50 (COLO-320-HSR): > 1020 nM

— ChEMBL document CHEMBL1201861, “Genomics of Drug Sensitity in Cancer screening data, Wellcome Trust Sanger Institute”
